In patent US8030444B2, “Microbicidal compositions comprising human CD38 polypeptides derived from the extracellular membrane-proximal region” (priority 2002, dated 2011):
pEC50: −log10 of the molar value. Like-named read-outs stand apart in the source and are kept apart here. Ends that are not written are not given here.

Legend:
[1] = biological target: T1, recombinant soluble human (rsh) CD4 (Homo sapiens, UniProt P01730); experiment: Binding of biotin-conjugated peptide to plate-adsorbed rshCD4 (ELISA); details: 0.1-10 μM peptide
T1 construct: recombinant soluble human (rsh) CD4 (2 μg/ml) (R&D Systems); purchased R&D Systems
Method: Synthetic peptides from CD38 (SEQ ID NO:23) were conjugated with biotin (Pierce) as described in Wilchek, M., and Bayer, E. A., “Avidin-biotin technology,” Methods Enzymol., 184:1-746 (1990). Briefly, recombinant soluble human (rsh) CD4 (2 μg/ml) (R&D Systems) was adsorbed onto wells of 96-well-ELISA plates. Wells were then saturated with phosphate buffer saline (PBS)+2% bovine serum albumin (BSA), washed with PBS+1% BSA+0.05% Triton X-100, and the plates were incubated for 2 h at 37° C. with 100 μL of different concentrations (0.1-10 μM) of biotin-conjugated peptide. After six washes, 100 microl of streptavidin-conjugated horseradish peroxidase (HRP) from a commercially available HIV-1 p24 ELISA kit (NEN) diluted 1:100 in PBS+1% BSA was added to the wells for 30 min. at room temperature. After six more washes, the wells were incubated in the dark for 30 min. at room temperature with 100 μL of o-phenylenediamine (OPD tablets-Sigma), a chromogenic substrate for HRP diluted in phosphate-citrate buffer pH 5.0 as indicated in the Manufacturer's instructions. Then, the reaction was stopped by adding to each well 100 μL of 4 N sulfuric acid. Plates were read at 450 nm using an automated ELISA reader. […] Negative controls were run by incubating the wells with each of the titrated peptide in the absence of rshCD4 and performing the same steps described above. […]

HIV-1IIIB [2] = system: HIV-1IIIB
MT-4 cells = experiment: Toxicity assays (trypan blue, MTT, propidium iodide/annexin V) on MT-4 cells; type: cell-based
Method: (§1) Cell proliferation was assessed by sequential counts of the number of live cells per ml of cell cultures by the trypan-blue exclusion method. Cell viability and apoptosis were analyzed by the methyl tetrazolium (MTT) method (Sigma-Aldrich) according to a procedure previously described in Savarino, A., Calosso, L., Piragino, A., Martini, C., Gennero, L., Pescarmona, G. P., and Pugliese, A. (1999). Modulation of surface transferrin receptors in lymphoid cells de novo infected with human immunodeficiency virus type-1. Cell. Biochem. Funct 17, 47-55, the contents of which are hereby incorporated in their entirety, and by propidium iodide/annexin V FITC staining (MedSystems Diagnostics GmbH, Vienna, Austria) following the manufacturer's instructions.
(§2) Cells (from established cell lines or primary cultures) were resuspended at 2.5×10^5/ml in the presence of 0, 0.1, 1, 10 and 100 nM CD3851-74 MBP. Then, 200 μL portions were transferred to microtiter trays and maintained at 37° C. […] Cell viability was monitored daily by trypan blue-dye exclusion. Cell proliferation was assessed by sequential counts of the number of live cells per ml of cell cultures by the trypan-blue exclusion method. Cell viability and apoptosis were analyzed by the methyl tetrazolium (MTT) method, and by propidium iodide/annexin V fluorescein isothiocyanate (FITC) staining following the manufacturer's instructions. […]

[3] = system: primary HIV-1 isolates (R5); experiment: Infection of PBMC by primary HIV-1 isolates, p24 ELISA; type: cell-based
[4] = system: HIV-1IIIB-infected MT-4 cells; experiment: HIV-1 cytopathogenicity in MT-4 cells, re-clustering after cluster disruption; type: cell-based; details: five days post-infection with HIV-1IIIB, 100 μM (FIG. 6)
Method: MT-4 cells display a typical clustered pattern. When infected with HIV-1IIIB, MT-4 cells lose the capacity of forming clusters. At five days post-infection, clusters were dissociated by pipetting, and reclustering was examined microscopically after a 3-h incubation at 37° C., as described by Pauwels et al. Pauwels, R., et al., “Sensitive and rapid assay on MT-4 cells for detection of antiviral compounds against the AIDS virus,” J Virol Methods, 16: 171-185 (1987). In MT-4 cells, in fact, HIV-1IIIB acts as a slow/low syncytium-inducing strain whose cytopathic effect consists in loss of cell ability to cluster and is strictly correlated to the level of viral replication.

PHA-stimulated PBMC = experiment: Cytokine production by PBMC in response to PHA; type: cell-based
Method: To evaluate whether CD3851-74 MBP might costimulate activation of PBMC, tests were conducted to evaluate cytokine production in response to PHA. For this purpose, PBMC were ficoll-separated and incubated with 0, 0.1, 1, 10 nM CD3851-74 MBP, in the presence of 0.1 or 1 μg/ml PHA. Then, supernatants were collected at 4, 12, 24, and 36 h of incubation, and the levels of TNF-alpha, IFN-gamma, IL-02, IL-4, IL-5, IL-6 and IL-10 were tested by ELISA (R and D Systems, Minneapolis, Minn.) or by cytofluorimetric multi-cytokine bead arrays (Becton-Dickinson). […] Some of these effects are depicted in the FIGS. 14, 15, 16 and 17. […] However, if significant, it would not be of safety concern. By contrast, it would support the anti-HIV effect of CD3851-74 MBP, since both TNF-alpha and IL-6 promote HIV-1 replication. […] De S K, Devadas K, Notkins A L. Elevated levels of tumor necrosis factor alpha (TNF-alpha) in human immunodeficiency virus type 1-transgenic mice: prevention of death by antibody to TNF-alpha. J Virol 2002; 76: 11710-4.

HeLa cells = experiment: Toxicity assays (trypan blue, MTT, propidium iodide/annexin V) on HeLa cells; type: cell-based; details: 0.1-100 nM
Method: as §1, §2

[5] = system: primary peripheral blood mononuclear cells (PBMC); experiment: Toxicity assays (trypan blue, MTT, propidium iodide/annexin V) on PBMC; type: cell-based
Method: as §1, §2

[6] = biological target: FITC-conjugated HIV-1IIIB gp120; experiment: gp120 attachment assay, FITC-gp120 staining of cells by flow cytometry; type: binding; details: MT-2 cells, 50 nM peptide, 5 μg/ml gp120
Method: In gp120 attachment assays, cells were incubated for 30 min. at 4° C. with 2 μg/ml of FlTC-conjugated HIV-1IIIB gp120 (gp120IIIB, Intracell Corp, London, UK) in PBS plus 2% albumin plus 0.01% NaN3 (PBS A/A) in the presence or absence of CD38 or CD38-derived molecules. Cells were then washed three times in PBS A/A, and fluorescence was acquired by flow cytometry. Fluorescence data were expressed as MeFI and normalized for CD4 expression where necessary.
In gp120 attachment assays, cells were incubated with saturating concentrations of FITC-conjugated gp120 from the HIV-1IIIB strain (gp120IIIB) (Intracell Corp, London, UK) in the presence or absence of CD3851-74, (SEQ ID NO:15, 21), and acquired fluorescence flow-cytometrically. The MeFI was used as an estimate of gp120 binding to cells.
HIV-1 gp120 binding experiments confirmed that CD3851-74 MBP inhibits at the level of gp120 attachment to target cells. In these experiments, MT-2 cells were incubated for 30 min. at 4° C. with saturating concentrations (5 μg/ml) of fluorescein isothiocyanate-labeled (FITC) HIV-1IIIB gp 120 (gp 120IIIB) in PBS plus 2% albumin plus 0.01% NaN3 (PBS A/A) in the presence or absence of 50 nM CD3851-74 MBP. Cells were then washed three times in PBS A/A, and fluorescence was acquired by flow cytometry.

[7] = Water solubility of peptides
HIV-1IIIB [8] = experiment: HIV-1IIIB infection of wild-type MT-2 cells in presence of soluble CD38; type: cell-based
Method: In acute infection assays, the appropriate cell types were incubated at 37° C. for 2 h with the viral stock suspensions at a multiplicity of infection (MOI) of approximately 0.1, unless otherwise specified. After three washes, cells were incubated in fresh culture medium for 7 days at 37° C., and cell-free supernatants at different intervals post-infection were harvested for ELISA measurement of HIV-1 p24 (NEN Life Science Prod., Boston Mass.) or HIV-2 p27 (Coulter, Hialeah, Fla.). Where necessary, soluble CD38-derived molecules were added during the step of virus adsorption onto cells.
First, attention was focused on the intracellular (IC) domain of CD38. HIV-1IIIB was used to infect both a MT-2 cell line transfected with a truncated form of CD38 lacking the IC domain (CD3824-300) and wild-type MT-2 cells in the presence of a recombinant soluble form of CD38 consisting solely of the extracellular (EC) domain (sCD3845-300).

Substance: (GPGTTK)8 polylysin (also: eight copies on polylysine core (MBP); listed as Homo sapiens) [GPGTTK MBP]
- association of biotin-conjugated peptide to rshCD4 (O.D.) [1]: associated to rshCD4 in a manner dependent on the concentration
- inhibition of HIV-1IIIB replication (in words) (HIV-1IIIB [2]; MT-4 cells, p24 ELISA): dose-dependently inhibited infection
- toxic effects on MT-4 cells (MT-4 cells; concentrations showing anti-HIV effects): no toxic effects
- anti-HIV activity against higher viral challenge ([3]; HIV-1UG3, PBMC, MOI 0.5, 1 nM): maintains the anti-HIV activity
- ability of infected MT-4 cultures to form clusters [4]: maintained a partial ability to form clusters

Substance: (SGPGTTKRFPETVLACVKYTEIH)8 polylysin [CD3851-74 MBP]
- IL-2, IL-4, IL-5 and IL-10 levels versus untreated cells (PHA-stimulated PBMC; PBMC, 0.1 or 1 μg/ml PHA, 0.1, 1, 10 nM peptide): essentially identical
- TNF-alpha and IL-6 levels (PHA-stimulated PBMC; PHA-stimulated PBMC, decrease did not reach statistical significance): transient and donor-dependent inhibition
- cell proliferation, viability and death (HeLa cells): does not alter cell proliferation and viability nor does it induce death
- toxicity in uninfected PBMC cultures ([5]; 0.1 nM-100 nM, growth kinetics, trypan blue, MTT, annexin V/propidium iodide): did not display any significant toxicity
- cell proliferation, viability and death ([5]; PBMC, PHA-stimulated or unstimulated, three donors, 0.1-100 nM): does not alter cell proliferation and viability nor does it induce death
- range of inhibitory concentrations lower than that of CD3851-74 (HIV-1IIIB [2]; HIV-1 replication, compared with Example I): approximately 1000 fold
- concentration range of dose-dependent inhibition of HIV-1IIIB infection (HIV-1IIIB [2]; MT-4 cells, p24 ELISA Day 3): 1 to 10 nM
- pEC50 (HIV-1IIIB [2]; read-out: EC50, inhibition of HIV-1IIIB infection, MT-4 cells, p24 ELISA Day 3, peptide added only during virus adsorption): 7.92
- EC90 (HIV-1IIIB [2]; read-out: EC90, inhibition of HIV-1IIIB infection, MT-4 cells, p24 ELISA Day 3, peptide added only during virus adsorption): 0.075 µM
- cell proliferation, viability and death (MT-4 cells; MT-4 cells, 0.1-100 nM): does not alter cell proliferation and viability nor does it induce death
- growth kinetics of primary R5 isolates subtype C (VI 829) and subtype A (UG3) ([3]; PBMC, 1 nM): delayed the growth kinetics
- estimated selectivity index ([3]; antiviral effects at 0.1 nM, no toxicity up to 100 nM): 1000
- concentration range inhibiting infection of PBMC by primary HIV-1 isolates ([3]; pilot experiments, PBMC, isolate VI 829): 0.1 to 10 nM
- concentration at which antiviral effects were detected ([3]; see Example IV): 0.1 nM
- gp120-FITC binding to cells [6]: down-modulated

Substance: RQQWSGPGTTKRFPETVLARCVKYTEIH [SEQ ID NO: 17]
- water solubility [7]: water-insolubility

Substance: RQTWSGPGTTKRFPETVLARCVKYTEIH [SEQ ID NO: 13]
- water solubility [7]: water-insolubility

Substance: RWRQQWSGPGTTKRFPETVLARCVKYTEIH [SEQ ID NO: 16]
- water solubility [7]: water-insolubility

Substance: RWRQTWSGPGTTK [SEQ ID NO: 14]
- water solubility [7]: water-insolubility

Substance: RWRQTWSGPGTTKRFPETVLARCVKYTEIH [SEQ ID NO: 12]
- water solubility [7]: water-insolubility

Substance: SGPGTTKRFPETVLARCVKYTEIH [CD3851-74]
- pEC50 (HIV-1IIIB [2]; 1IIIB, 2 h): 5.66
- EC90 (HIV-1IIIB [2]; 1IIIB, 2 h): 182 µM
- toxic effects at the concentrations used (cell cultures): did not carry out toxic effects

Substance: sCD3845-300: recombinant soluble form of CD38 consisting solely of the extracellular (EC) domain
- HIV infection of MT-2 cells (HIV-1IIIB [8]): inhibited HIV infection
